Values of other authors in patent publication US20070298000A1, “High SPF transparent or translucent naturally derived, cytoprotective, UV radiation resistant compositions” (priority 2006, published 2007).

Columns and labels:
[1] = test system: uterine wet weight, cell height, cell proliferation; conditions: cell proliferation assays

In the case of `CCCCC(CC)COC(=O)c1ccc(N(C)C)cc1` (stereo not drawn) [octyl-dimethyl-PABA], the “effect on growth of cancer cells / activity in cells” value (cancer cells) is given as “made cancer cells grow more rapidly”.

For `Cc1ccc(C=C2C(=O)C3(C)CCC2C3(C)C)cc1` (stereo not drawn) [4-methyl-benzylidene camphor, 3-(4-methylbenxylidene) camphor], the “effect on growth of cancer cells / activity in cells” value (cancer cells) is given as “made cancer cells grow more rapidly” and the estrogenicity [1] is given as “highly estrogenic”.

For `CC1CC(OC(=O)c2ccccc2O)CC(C)(C)C1` (stereo not drawn) [homosalate], the “effect on growth of cancer cells / activity in cells” value (cancer cells) is listed as “made cancer cells grow more rapidly”.

For `COc1ccc(C(=O)c2ccccc2)c(O)c1` [benzophenone-s], the “effect on growth of cancer cells / activity in cells” value (cancer cells) is given as “made cancer cells grow more rapidly” and the estrogenicity [1] is given as “highly estrogenic”.
